Data published in patent US10888556B2, “Method for treating myopia with an nsaid and an anti-muscarinic agent” (KAOHSIUNG CHANG GUNG MEMORIAL HOSPITAL, priority 2013, dated 2021).

Key:
human SSPC = experiment: Col2 and α-SMA expression in human SSPC treated with TGF-β2 (western blot); type: cell-based; details: in the presence of TGF-β2 (10 ng/ml), 1 mM atropine, 5 mM ketorolac, 1 mM diclofenac
Protocol: Different concentrations of TGF-β2 were added into 12-wells of SSPCs. After 24 hrs, the images of SSPC morphology were recorded. The total RNA was extracted for further analysis. A chamber slide culture for the immunofluorescence study was performed under the same condition.
The total protein from the sclera was extract by using RIPA protein extraction buffer. After homogenization of scleral tissue, the sample was centrifuged and the supernatant was collected. The protein concentration of each sample was measured using a BCA™ protein Assay Kit (Bio-Rad). Scleral protein samples were standardized and electrophoresed on 10% SDS-PAGE gel, then transferred to a polyvinylidene fluoride transfer membrane (Immun-Blot PVDF Membrane, BIO-RAD) at 21 V for 1 h. Membranes were blocked for 1 h at room temperature with 5% dry milk in PBS with 0.1% Tween and incubated at 4° C. overnight with primary antibodies. Membranes were washed and incubated with 1:10,000 goat anti-mouse or anti-rabbit IgG antibodies conjugated to horseradish peroxidase (Santa Cruz) for 1 h at room temperature and washed again. Membranes were developed by chemiluminescence with the reagent Lumigen TMA-6 (GE Healthcare UK limited, Buckinghumshire, UK) and images were captured with the LAS-4000 imaging system (Fujifilm, Tokyo, Japan). Protein bands were quantified using ImageJ software.
An in vitro study examining the effect of an anti-muscarinic agent and NSAID on Col2 and α-SMA expressions was performed using human SSPC.

myopic patient = experiment: Treating a myopia subject with NSAID (ketorolac ophthalmic solution); type: in vivo, human; details: one patient, both eyes, after three months of about 0.5% ketorolac, one drop at night
Protocol: The dose of ketorolac was about 0.5% weight ketorolac per unit dose (about 0.05 to 0.5 ml) and the affected eye was given one drop (about 0.05 to 0.5 ml) of ketorolac ophthalmic solution at night.

TNF-α = experiment: Expression of inflammation markers in choroids of FDM mice (real-time PCR); type: in vivo; details: FDM eye of mice, one ketorolac eye drop once a day
Protocol: (§1) Total RNA from SSPCs or the choroid tissue in each eye was isolated using Trizol (Invitrogen, Carlsbad, Calif.) accordingly to the manufacture's protocol. qRT-PCR analysis was carried out using the iScript one-step RT-PCR kit with SYBR Green (Bio-Rad, Hercules, USA) on an ABI PRISM 7900 HT sequence detection system (Applied Biosystems, Foster City, USA), according to the manufacturer's instructions. […] Ct values of the control gene were subtracted from those of α-SMA and Col2 to provide a semiquantitative analysis, and fold change relative to no treatment was assessed.
On the day of the experiment (postnatal day [P] 21˜24), C57BL/6J mice were anesthetized by intraperitoneal injection of ketamine (90 mg/kg) and xylazine (10 mg/kg), and the diffuser eye patches were sutured to the skin around the right eye whereas the left eye served as a control. […] The mice were recovered and monitored on a warming pad until they were fully mobile. […]
An in vivo study evaluating the expression of inflammation markers in the choroid was evaluated using FDM Mice. […]

SSPCs = experiment: α-SMA and Col2 expression in SSPCs treated with TGF-β2, atropine/ketorolac combination; type: cell-based, mouse; details: in the presence of TGF-β2 10 ng/ml, 0.5 mM atropine, 2.5 mM ketorolac, or combination
Protocol: In brief, sclera from the mouse was obtained and was carefully dissected away from limbus and optic disc under a dissection microscope. After retina and choroid tissues were removed, the scleral tissue was cut into small pieces and digested with 1.5 mg/ml collagenase type I (Worthington Biochemical, Lakewood, USA) and 2 mg/ml of dispase (Roche, Basel, Switzerland) in PBS for 1 h at 37° C. to release individual cells. Individual cells were cultured in α-MEM (Invitrogen, Carlsbad, USA), supplemented with 20% lot-selected FBS (Equitech-Bio, Kerrville, USA), glutamine, penicillin/streptomycin and 100 mM 2-mercaptoethanol (Invitrogen) for 8 to 10 days at 5% CO2, 37° C.
Total RNA from SSPCs or the choroid tissue in each eye was isolated using Trizol (Invitrogen, Carlsbad, Calif.) accordingly to the manufacture's protocol. qRT-PCR analysis was carried out using the iScript one-step RT-PCR kit with SYBR Green (Bio-Rad, Hercules, USA) on an ABI PRISM 7900 HT sequence detection system (Applied Biosystems, Foster City, USA), according to the manufacturer's instructions. […] Ct values of the control gene were subtracted from those of α-SMA and Col2 to provide a semiquantitative analysis, and fold change relative to no treatment was assessed. […]

SSPC = experiment: Effect of TGF-β2 treatment on α-SMA and Col2 gene expression in SSPC (quantitative Real Time-PCR); type: cell-based, mouse; details: 0.1 to 10 ng/ml TGF-β2 for 24 hrs, dose dependent
Protocol: The SSPCs were isolated and cultured as previously described by CL Tsai et al. (Identification of multipotent stem/progenitor cells in murine sclera. Invest Ophthalmol Vis Sci 52:5481-5487, 2011). In brief, sclera from the mouse was obtained and was carefully dissected away from limbus and optic disc under a dissection microscope. After retina and choroid tissues were removed, the scleral tissue was cut into small pieces and digested with 1.5 mg/ml collagenase type I (Worthington Biochemical, Lakewood, USA) and 2 mg/ml of dispase (Roche, Basel, Switzerland) in PBS for 1 h at 37° C. to release individual cells. […]
Different concentrations of TGF-β2 were added into 12-wells of SSPCs. After 24 hrs, the images of SSPC morphology were recorded. […]
as §1, with “assessed. […]” for “assessed.”

**Q.** With `O=C(c1ccccc1)c1ccc2n1CCC2C(=O)O` (stereo not drawn) [ketorolac] as the molecule, how does the “expression of Col2” value (human SSPC) read?
**A.** suppressed

**Q.** And the “expression of α-SMA” value (human SSPC)?
**A.** suppressed

**Q.** And the myopia progression (myopic patient)?
**A.** no myopia progression

**Q.** And the “level of TNF-α in the choroids” value (TNF-α)?
**A.** suppressed

**Q.** What about the “expression of Col2” value (SSPCs) of the same molecule?
**A.** reduced

**Q.** And the “expression of α-SMA” value (SSPCs)?
**A.** reduced

**Q.** How did the “expression of Col2” value (human SSPC) turn out when `CN1[C@@H]2CC[C@H]1C[C@@H](OC(=O)C(CO)c1ccccc1)C2` (stereo partly drawn) [atropine] was run?
**A.** suppressed

**Q.** And the “expression of α-SMA” value (human SSPC)?
**A.** suppressed

**Q.** For `O=C(O)Cc1ccccc1Nc1c(Cl)cccc1Cl` [diclofenac], which “expression of Col2” value (human SSPC) is on record?
**A.** suppressed

**Q.** And the “expression of α-SMA” value (human SSPC)?
**A.** suppressed

B1: TGF-β2: Transforming growth factor beta 2 (SEQ ID NO:5), ocular chondrogenic protein used to induce α-SMA and Col2 in SSPC (protein, listed as Homo sapiens)
chain: MHYCVLSAFLILHLVTVALSLSTCSTLDMDQFMRKRIEAIRGQILSKLKLTSPPEDYPEPEEVPPEVISIYNSTRDLLQEKASRRAAACERERSDEEYYAKEVYKIDMPPFFPSEAIPPTFYRPYFRIVRFDVSAMEKNASNLVKAEFRVFRLQNPKARVPEQRIELYQILKSKDLTSPTQRYIDSKVVKTRAEGEWLSFDVTDAVHEWLHHKDRNLGFKISLHCPCCTFVPSNNYIIPNKSEELEARFAGIDGTSTYTSGDQKTIKSTRKKNSGKTPHLLLMLLPSYRLESQQTNRRKKRALDAAYCFRNVQDNCCLRPLYIDFKRDLGWKWIHEPKGYNANFCAGACPYLWSSDTQHSRVLSLYNTINPEASASPCCVSQDLEPLTILYYIGKTPKIEQLSNMIVKSCKCS
modifications: Transforming growth factor beta-2 (TGF-beta-2)
**Q.** Which α-SMA gene expression (SSPC; p<0.0001) does the source give for B1 here?
**A.** statistically significant increase

**Q.** What about the Col2 gene expression (SSPC; p=0.011) of the same molecule?
**A.** statistically significant increase
